Test results: a melting point compilation (Tetko et al.; mined from patent text by program, amines drawn as free bases though some values may be those of a salt)

melting point [°C]	SMILES
106 to 108	COC(=O)c1cc(N2C(=O)C(=O)N(C(C)C)C2=O)c(F)cc1Cl
184 to 185	CCCCNc1cc(C(=O)O)cc(S(=O)(=O)NCCCC)c1Oc1ccccc1
260 to 262	CC(=O)Nc1ccc2c(c1)S(=O)(=O)N=C(NC(C)C)N2
157 to 158	CC(=O)Nc1cccc(-c2cncnc2)c1
233 to 235	CCN1C(C(=O)Nc2cncc(Cl)n2)=C(O)c2ccccc2S1(=O)=O
172 to 173	COc1cc2c(cc1OC)CCCC(C(=O)N1CCN(C(=S)c3cc(OC)c(OC)c(OC)c3)CC1)=C2
112 to 114	CC=CC(=O)NCc1ccccc1
148 to 150	CC(C)(C)OC(=O)N1CC=C(c2cnc(COc3ccc(S(C)(=O)=O)cc3)cc2Cl)CC1
115 to 118	CCCc1c(OCCCS(=O)(=O)c2ccc(CC(=O)OC)c(Cl)c2Cl)ccc(C(C)=O)c1O
53 to 54	CC(C)=CCn1cc(C)nc1[N+](=O)[O-]
193 to 195	O=[N+]([O-])c1ccc(-c2cc3c(Oc4ccc(Cl)cc4)cncc3s2)cc1
40	CCCSN(C)C(=O)Nc1ccc(Cl)c(Cl)c1
176 to 177	Cc1sc2c(Br)c3ccccc3c(-c3cc(Br)c(O[C@@H](CCc4ccccc4)C(=O)O)c(Br)c3)c2c1C
170 to 171	CCOC(=O)c1cn(-c2ccc(OC)cc2F)c2cc(F)c(F)cc2c1=O
231 to 232	O=C(O)CCCCOc1ccccc1C1(c2ccccc2)NC(=O)NC1=O (stereo not drawn)
87	CCOC(=O)c1ccc(N=C(C)c2ccccc2)cc1
144 to 146	Clc1ccc(CSC(CCc2ccccc2)Cn2ccnc2)cc1Cl (stereo not drawn)
308 to 310	Cc1cccc2nc(C(F)(F)F)n(C3CCC(=O)NC3=O)c(=O)c12 (stereo not drawn)
124 to 125	CCCCCS(=O)(=O)NC(=O)/C=C/c1ccc(OCCCOCC2CC2)cc1Oc1ncc(C(F)(F)F)cc1Cl
141 to 142	CCOC(=O)N1CCN(c2ccncc2N)CC1
82 to 84	COc1ccc(C(=O)/C=C/N(C)C)cc1COC(=O)C(C)(C)C
108 to 110	CC(C)C(NS(=O)(=O)c1ccc(Br)cc1)C(=O)OC(C)(C)C (stereo not drawn)
148 to 151	CCCc1nc2c(N)nc3cc(OCCNS(C)(=O)=O)ccc3c2s1
166 to 168	Cn1c(C(F)(F)F)c(C#N)c2cc(Cl)ccc21

melting point [°C]	SMILES
275 to 279	Cc1ccc(Cl)c(NS(=O)(=O)C2(NC=O)N=CN=N2)c1Cl (stereo not drawn)
234	NS(=O)(=O)c1cccc(-c2cc(-c3nc(-c4ccc(C(F)(F)F)cc4)cc(C(F)F)n3)ccn2)c1
165 to 169	CC1CC(=O)C=C(N)C1 (stereo not drawn)
85 to 86	Cc1ccc(N=NN2C(C)(C)CC(O)CC2(C)C)cc1
111 to 113	O=C(C(=O)c1cccc(Br)c1)c1cc[nH]c1
178 to 180	CCOC(=O)c1cn(CC)c2cc(C(=O)C=C(C)N(C)C)ccc2c1=O
257 to 258	O=C(Nc1cccc(Cl)c1)C1=Cc2ccccc2S1=O (stereo not drawn)
78 to 82	CC(C)C(CCCCCCCC(=O)O)NCc1ccc(F)cc1 (stereo not drawn)
148 to 150	COC(=O)c1cc(C(=O)OC)cc(S(N)(=O)=O)c1
222 to 224	COc1cc2nc3ccc(SC)cc3sc-2cc1=O
111 to 114	CN1C(=O)N(C[C@H](C(=O)O)[C@@H](CC2CCCC2)C(=O)N2CCCCC2)C(=O)C1(C)C
61 to 63	Cc1nc(-c2cccc(C(F)(F)F)c2)ccc1C=O
220 to 240	COc1ccc(Nc2nc(-c3ccccc3)cc(N3CCC(O)CC3)n2)cc1Cl
163	CC(C)(C)OC(=O)Nc1cc(OCc2ccccc2)c(OCc2ccccc2)cn1
55 to 57	NNC1=NCCc2ccccc21
132 to 133	CN1CCN(Cc2ccc(NC(=O)c3ccc(Cl)c(C#Cc4ccc(NC5CCC5)nn4)c3)cc2C(F)(F)F)CC1
118 to 120	COCCOc1c(C)c(N2CCN(c3ccc(C)cc3)CC2)c(C)c2c1OC(C)(C)C2
155 to 157	COCC(=O)Oc1cc(=O)n(-c2ccccc2)c2ncccc12
110 to 112	CCOC(=O)c1ccc(Cn2cnc3ccncc32)cc1
231 to 232	COc1cccc2c(=O)[nH]c(-c3cc(C)c(OCCN4CCCC4)c(C)c3)nc12
53.5 to 55	FC1(F)c2ccccc2Cc2ccccc2C1(F)F
146 to 147	C=CCNc1nc(-c2ccccc2)c(-c2ccc(=O)n(CC=C)n2)s1
108 to 110	CC1=CC(OC(=O)c2ccc([N+](=O)[O-])cc2Cl)C(O)C(C)(C)CC1=O (stereo not drawn)
211 to 213	O=C(O)c1cc(Cl)c(OCc2ccccc2)c(Cl)c1

melting point [°C]	SMILES
132 to 133	CC(C)(C)c1ccc(CCCCC(O)CC2CCCC2)cc1NC(=O)CC1c2ccccc2Oc2ccccc21 (stereo not drawn)
135	O=C(COc1cc(-c2ccccc2)nc2ccccc12)N1CCCC1
282 to 283	CCC(=O)Nc1ccc2c(Nc3cccc(Br)c3)ncnc2c1
123 to 124	CC1CCCN(Cc2cccc(OCCCCNc3nnc(N)s3)c2)C1 (stereo not drawn)
58 to 59	COc1ccc(CS(=O)(=O)C(C)(Cc2ccccc2)C(=O)N(O)O)cc1 (stereo not drawn)
> 300	CC(=O)NCCNc1nc(Nc2ccc3[nH]nnc3c2)ncc1C(F)(F)F
111 to 113	Cc1c(O)c(=O)ccn1CCCO
109 to 110	CCCc1cc(NC(=O)N2CCN(c3ccccc3OC)CC2)c(OC)nc1C
228	O=C1NS(=O)(=O)c2cccc(O)c21
106 to 108	COC(=O)CCc1cc2cc(C(F)(F)F)ccc2n1S(=O)(=O)c1cccc2nc(C)sc12
240 to 242	O=C1c2ccc([N+](=O)[O-])cc2C(=O)N1C1CCN(Cc2ccccc2)CC1
155 to 157	CCCOC(=O)Nc1nc2ccccc2c2c1nc(CC)n2CCCCNS(C)(=O)=O
203 to 205	CNC(=O)c1cnn(-c2ccccc2)c1C#N
224 to 225	CC1(C)CC(=O)c2c(ncc3[nH]c4ccccc4c23)C1
173 to 175	COc1ccc(C2=CC(=Nc3c(C)cc(C)cc3C)N(C)CN2C(C)=O)cc1OC
> 250	O=C(O)/C=C/c1ccc(-c2nc3c(=O)n(CC4CC4)c(=O)n(CC4CC4)c3[nH]2)cc1
264 to 265	Clc1ccc(-c2[nH]nc(N3CCN(C4CC4)CC3)c2-c2ccncc2)cc1
192 to 193	CCCc1cc(=O)n(-c2cc(C(=O)OC(C)C)c(Cl)cc2F)c(=O)[nH]1
166 to 170	O=C(CCl)Nc1ccc2c(c1)CC(=O)N2
198 to 200	CCCOc1ccc(S(=O)(=O)N2CCN(Cc3ccccc3)CC2)cc1-c1nc2cc(Cl)c([N+](=O)[O-])cc2c(=O)[nH]1
154 to 158	CCN(CC)C(=O)Cc1c(N)n[nH]c1-c1ccc(OC)cc1
124 to 125	COc1cccc(OC)c1CN1CC2CCCN2c2ccccc21 (stereo not drawn)
87 to 88	COC(=O)c1ccc2oc(CCCc3cc4cc(C(=O)OC)ccc4o3)cc2c1
122 to 123	CN(C)CCNC(=O)c1cccc(-c2ccc3c(c2)N(Cc2ccc(Cl)cc2Cl)CC3)c1

melting point [°C]	SMILES
148	O=C1C/C(=C\c2ccccc2[N+](=O)[O-])C(=O)N1
215 to 216	COc1ccccc1N1CCN(CC(=O)Nc2ccc3c(c2NC(=O)c2ccc(C)cc2)C(=O)c2ccccc2C3=O)CC1
73.8 to 74.6	COC1(OC)CC2CC[C@@]1(CS(=O)(=O)N(C(C)C)C(C)C)C2(C)C
102 to 103	COc1ccc(OCCCCBr)c(C2(SC)Sc3ccccc3N(C)C2=O)c1 (stereo not drawn)
219 to 221	Cn1c(=O)c2conc2n(-c2ccccc2)c1=O
180	CN1C(=O)C(c2c[nH]c3ncccc23)=C(c2cn(C(=O)OC(C)(C)C)c3ccccc23)C1=O
220 to 221	Cc1cc(C(=O)O)ccc1N1CCOCC1
161 to 162	Nc1cc(C(=O)O)cc(OCc2ccccc2)c1-c1ccccc1
85 to 87.5	CC(Oc1ccccc1)C(=O)NCCCCn1cnc2c(N)nc3ccccc3c21 (stereo not drawn)
164 to 166	COc1ccc(C2=NN(Cc3ccc(CC(=O)O)cc3)C(=O)[C@H]3CCCC[C@@H]23)cc1OC (relative stereo)
158	COC(=O)C1=C(C)NN=C(c2ccccc2)C1c1ccccc1 (stereo not drawn)
166 to 168	O=C(O)Cc1c(C(=O)c2ccc(OC(F)(F)F)cc2)[nH]c2cc(Cl)ccc12
279	CC(C)(C)c1ccc(C(=O)Nc2cn3nc(NCCc4ccncc4)ccc3n2)cc1
129	CCn1c2c(c3ccccc31)C=CN(C(=O)OC)C=C2C(=O)OC
246	COC(=O)NNC(=O)Nc1cc(Cl)cc(Cl)c1
250 to 254	Cn1c(COc2ccc(CC3SC(=O)NC3=O)cc2)nc2ccc(Oc3ccc4cccc(NC(=O)Nc5ccc(C(F)(F)F)cc5)c4c3)cc21 (stereo not drawn)
87	CCOC(=O)C1=C(N)N=C(OCC)C(C(=O)OCC)C1c1cccc(C(=O)OCC)c1 (stereo not drawn)
127	Oc1ccc2c(c1)CCCC(c1ccccc1)=C2c1ccc(OCCCCCCSCc2ccccn2)cc1
180 to 182	COc1cc2ncnc(N3CCC(CI)CC3)c2cc1OC
232 to 233	CN1CCN(c2sc(-c3nc4ccccc4c(=O)n3-c3ccc(Cl)cc3)cc2-c2ccc(S(C)(=O)=O)cc2)CC1
116 to 117	CC(=Cc1ccccc1Br)c1ccc2c(c1)C(C)(C)CCC2(C)C
278 to 280	Cc1nc(-n2ccc(OCc3ccc(C(F)(F)F)cc3)cc2=O)sc1C(=O)NCc1ccccc1
195 to 197	NC(=O)c1ccc(NC(=O)C(CS)Cc2ccccc2)cc1 (stereo not drawn)
286 to 290	CNC1(C)CN(c2cc3c(cc2F)c(=O)c2c(=O)[nH]sc2n3C2CC2)C1

SMILES	melting point [°C]
Cc1nc(C(=O)N(C)C)c2n1-c1ccc(Cl)cc1C(c1ccccc1Cl)=NC2	225 to 230
COc1ccc(C2C(Oc3ccccc3)C(=O)N2c2cc(OC)c(OC)c(OC)c2)cc1O (stereo not drawn)	176 to 180
